Measurements from US20230257396A1, “MACROCYCLES AND THEIR USE” (BLOSSOMHILL THERAPEUTICS, INC., priority 2020, published 2023).
Where a chain is given by its changes, count along the chain named.

Tests used:
Experiment in all cases: KINOMEscan kinase binding assay (Eurofins/DiscoveRx), % Ctrl
kinases [1] = target: T1, kinases (Homo sapiens, UniProt P07949, V804L); settings: 1 μM; RET(V804L)
T1 construct: purchased Eurofins/DiscoveRx; host or cells: E. coli BL21-derived host (T7 phage display) for most kinases; HEK-293 for the rest
T1 sequence (P07949 29-1114 V804L): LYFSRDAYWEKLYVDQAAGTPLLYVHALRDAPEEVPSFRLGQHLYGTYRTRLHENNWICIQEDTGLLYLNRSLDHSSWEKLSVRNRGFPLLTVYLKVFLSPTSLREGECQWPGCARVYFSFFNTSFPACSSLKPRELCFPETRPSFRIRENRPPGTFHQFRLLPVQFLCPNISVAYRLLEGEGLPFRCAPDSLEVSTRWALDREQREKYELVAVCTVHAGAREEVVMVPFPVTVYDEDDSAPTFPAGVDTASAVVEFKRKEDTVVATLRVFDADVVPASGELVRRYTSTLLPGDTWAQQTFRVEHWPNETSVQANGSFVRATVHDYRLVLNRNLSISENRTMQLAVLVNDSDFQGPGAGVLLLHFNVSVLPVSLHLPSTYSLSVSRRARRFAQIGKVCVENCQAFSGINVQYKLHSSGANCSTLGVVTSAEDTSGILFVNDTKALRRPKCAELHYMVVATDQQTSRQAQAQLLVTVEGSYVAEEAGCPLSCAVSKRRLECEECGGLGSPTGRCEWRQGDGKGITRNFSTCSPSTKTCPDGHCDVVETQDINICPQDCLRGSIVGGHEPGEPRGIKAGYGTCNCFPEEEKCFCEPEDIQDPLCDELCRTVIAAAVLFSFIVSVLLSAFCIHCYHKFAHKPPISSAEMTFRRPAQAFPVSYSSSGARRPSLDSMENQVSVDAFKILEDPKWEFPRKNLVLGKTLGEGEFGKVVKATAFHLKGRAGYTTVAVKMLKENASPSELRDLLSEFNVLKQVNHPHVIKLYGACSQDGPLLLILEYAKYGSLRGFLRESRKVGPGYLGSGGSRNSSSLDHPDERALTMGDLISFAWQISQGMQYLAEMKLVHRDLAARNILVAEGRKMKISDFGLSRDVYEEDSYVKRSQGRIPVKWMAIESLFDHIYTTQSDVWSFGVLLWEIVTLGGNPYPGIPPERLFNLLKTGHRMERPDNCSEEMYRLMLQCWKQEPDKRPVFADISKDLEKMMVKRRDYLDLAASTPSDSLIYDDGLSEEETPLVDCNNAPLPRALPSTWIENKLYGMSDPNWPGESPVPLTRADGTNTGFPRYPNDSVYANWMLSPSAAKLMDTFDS
Outline: (§1)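 Competition binding: DNA- or phage-tagged kinases (T7 phage in E. coli BL21, or HEK-293-expressed) with immobilized biotinylated ligand beads and test compound, 1 h at room temperature. Bead-bound kinase eluted and quantified by qPCR; % Ctrl = (compound − positive control)/(negative control − positive control) ×100 at a single compound concentration.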

kinases [2] = target: T2, kinases (Homo sapiens, UniProt P00519, F317I); settings: 1 μM
T2 construct: purchased Eurofins/DiscoveRx; host or cells: E. coli BL21-derived host (T7 phage display) for most kinases; HEK-293 for the rest
T2 sequence (P00519 whole entry F317I): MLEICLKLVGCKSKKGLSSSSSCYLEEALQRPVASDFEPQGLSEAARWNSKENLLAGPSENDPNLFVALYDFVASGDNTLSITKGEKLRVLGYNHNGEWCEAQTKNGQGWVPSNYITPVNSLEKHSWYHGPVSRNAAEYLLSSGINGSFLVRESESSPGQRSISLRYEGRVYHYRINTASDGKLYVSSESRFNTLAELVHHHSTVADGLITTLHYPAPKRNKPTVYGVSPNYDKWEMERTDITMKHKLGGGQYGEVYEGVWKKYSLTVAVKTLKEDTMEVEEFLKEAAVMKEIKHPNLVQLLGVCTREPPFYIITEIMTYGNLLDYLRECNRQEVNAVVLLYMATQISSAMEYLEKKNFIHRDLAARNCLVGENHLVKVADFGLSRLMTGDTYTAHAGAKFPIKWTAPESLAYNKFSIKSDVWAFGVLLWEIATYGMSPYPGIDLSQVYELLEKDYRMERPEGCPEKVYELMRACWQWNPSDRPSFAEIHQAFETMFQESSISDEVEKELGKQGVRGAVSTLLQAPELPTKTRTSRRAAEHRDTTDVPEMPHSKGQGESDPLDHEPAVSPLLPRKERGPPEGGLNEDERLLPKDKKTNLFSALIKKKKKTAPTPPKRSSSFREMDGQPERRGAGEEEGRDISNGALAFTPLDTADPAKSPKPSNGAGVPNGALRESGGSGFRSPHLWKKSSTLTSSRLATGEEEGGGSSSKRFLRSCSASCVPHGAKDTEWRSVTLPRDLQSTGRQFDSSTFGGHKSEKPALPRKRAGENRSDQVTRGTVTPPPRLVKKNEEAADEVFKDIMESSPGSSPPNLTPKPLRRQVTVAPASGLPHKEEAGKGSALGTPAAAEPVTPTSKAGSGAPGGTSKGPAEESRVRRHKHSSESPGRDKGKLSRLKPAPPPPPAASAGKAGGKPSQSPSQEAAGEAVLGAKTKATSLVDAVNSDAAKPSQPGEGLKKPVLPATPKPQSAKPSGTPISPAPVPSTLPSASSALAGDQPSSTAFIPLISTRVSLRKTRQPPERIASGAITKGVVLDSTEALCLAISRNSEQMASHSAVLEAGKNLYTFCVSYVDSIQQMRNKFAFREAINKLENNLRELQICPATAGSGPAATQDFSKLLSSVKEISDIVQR
Outline: as §1

kinases [3] = target: T3, kinases (Homo sapiens, UniProt P36888, K663Q); settings: 1 μM; FLT3(K663Q)
T3 construct: purchased Eurofins/DiscoveRx; host or cells: E. coli BL21-derived host (T7 phage display) for most kinases; HEK-293 for the rest
T3 sequence (P36888 27-993 K663Q): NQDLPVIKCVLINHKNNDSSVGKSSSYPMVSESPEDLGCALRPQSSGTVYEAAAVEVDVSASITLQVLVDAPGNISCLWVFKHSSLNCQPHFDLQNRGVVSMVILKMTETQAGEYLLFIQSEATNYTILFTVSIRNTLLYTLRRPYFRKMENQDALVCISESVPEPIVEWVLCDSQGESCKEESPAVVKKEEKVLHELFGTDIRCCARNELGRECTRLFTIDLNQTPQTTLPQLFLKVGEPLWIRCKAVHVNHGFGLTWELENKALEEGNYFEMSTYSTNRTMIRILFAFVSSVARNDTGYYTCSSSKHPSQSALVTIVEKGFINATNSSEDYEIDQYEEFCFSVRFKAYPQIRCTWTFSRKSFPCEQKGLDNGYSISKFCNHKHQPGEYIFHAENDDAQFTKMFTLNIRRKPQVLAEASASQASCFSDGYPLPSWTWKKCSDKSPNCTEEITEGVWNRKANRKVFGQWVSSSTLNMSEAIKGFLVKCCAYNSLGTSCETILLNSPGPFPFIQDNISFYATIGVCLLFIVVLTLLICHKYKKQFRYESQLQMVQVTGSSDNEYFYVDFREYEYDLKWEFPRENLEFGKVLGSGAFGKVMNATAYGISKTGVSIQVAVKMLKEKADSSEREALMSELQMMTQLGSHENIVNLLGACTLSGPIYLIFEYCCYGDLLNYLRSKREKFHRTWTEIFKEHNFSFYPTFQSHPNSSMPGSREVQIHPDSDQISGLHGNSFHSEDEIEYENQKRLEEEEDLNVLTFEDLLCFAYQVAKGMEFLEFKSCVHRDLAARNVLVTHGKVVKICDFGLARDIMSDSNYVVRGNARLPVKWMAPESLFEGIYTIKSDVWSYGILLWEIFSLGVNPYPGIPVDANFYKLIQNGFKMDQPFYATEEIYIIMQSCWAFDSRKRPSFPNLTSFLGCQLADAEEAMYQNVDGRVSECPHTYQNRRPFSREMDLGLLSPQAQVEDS
Outline: as §1

kinases [4] = target: T4, kinases (Homo sapiens, UniProt P00533, G719S); settings: 1 μM; EGFR(G719S)
T4 construct: purchased Eurofins/DiscoveRx; host or cells: E. coli BL21-derived host (T7 phage display) for most kinases; HEK-293 for the rest
Outline: as §1

kinases [5] = target: T5, kinases (Homo sapiens, UniProt P36888, N841I); settings: 1 μM; FLT3(N841I)
T5 construct: purchased Eurofins/DiscoveRx; host or cells: E. coli BL21-derived host (T7 phage display) for most kinases; HEK-293 for the rest
T5 sequence (P36888 27-993 N841I): T3 sequence (P36888 27-993 K663Q) with Q637K, N815I
Outline: as §1

kinases [6] = target: T6, kinases (Homo sapiens, UniProt P00533, G719C); settings: 1 μM; EGFR(G719C)
T6 construct: purchased Eurofins/DiscoveRx; host or cells: E. coli BL21-derived host (T7 phage display) for most kinases; HEK-293 for the rest
Outline: as §1

| Compound | % Ctrl, RET(V804L) (kinases [1]) | % Ctrl, ABL1(F317I)-nonphosphorylated (kinases [2]) | % Ctrl, ABL1(F317I)-phosphorylated (kinases [2]) | % Ctrl, FLT3(K663Q) (kinases [3]) | % Ctrl, EGFR(G719S) (kinases [4]) | % Ctrl, FLT3(N841I) (kinases [5]) | % Ctrl, EGFR(G719C) (kinases [6]) |
| --- | --- | --- | --- | --- | --- | --- | --- |
| Cc1cc2c([nH]1)/C=C1\C(=O)Nc3ccc(nc31)-c1ccccc1OCCCNC2=O [Ex.22, [3a(4)Z]-6-methyl-9,10,11,12-tetrahydro-1,18-(ethanediylidene)dipyrrolo[3,2-g:3′,4′-j][1,5,12]benzoxadiazacyclopentadecine-3,8(2H,5H)-dione] | 98 % Ctrl | 88 % Ctrl | 100 % Ctrl | 100 % Ctrl | 95 % Ctrl | 65 % Ctrl | 93 % Ctrl |
| Cc1cc2c([nH]1)/C=C1\C(=O)Nc3ccc(cc31)-c1ccnn1CCOCCNC2=O [Ex.39, [19a(20)Z]-2-methyl-6,7,9,10-tetrahydro-1H-15,17-(ethanediylidene)pyrazolo[1,5-d]dipyrrolo[3,4-h:2′,3′-k][1,4,14]oxadiazacyclohexadecine-4,19(5H,18H)-dione] | 87 % Ctrl | 100 % Ctrl | 64 % Ctrl | 100 % Ctrl | 77 % Ctrl | 83 % Ctrl | 70 % Ctrl |
| Cc1cc2c([nH]1)/C=C1\C(=O)Nc3cnc(nc31)N(C)CCCOCCN(C)C2=O [Ex.71, [17a(18)Z]-2,5,12-trimethyl-6,7,9,10,11,12-hexahydro-1H-13,15-(azenometheno)dipyrrolo[3,2-f:3′,4′-i][1,4,11,13]oxatriazacyclohexadecine-4,17(5H,16H)-dione] | 95 % Ctrl | 100 % Ctrl | 100 % Ctrl | 84 % Ctrl | 76 % Ctrl | 75 % Ctrl | 71 % Ctrl |
| Cc1cc2c([nH]1)/C=C1\C(=O)Nc3ccc(cc31)OCCOCCN(C)C2=O [Ex.91, [16a(17)Z]-2,5-dimethyl-6,7,9,10-tetrahydro-1H-12,14-(ethanediylidene)dipyrrolo[3,2-i:3′,4′-l][1,4,7]dioxazacyclopentadecine-4,16(5H,15H)-dione] | 3.8 % Ctrl | 20 % Ctrl | 39 % Ctrl | 63 % Ctrl | 87 % Ctrl | 0 % Ctrl | 92 % Ctrl |
| Cc1cc2c([nH]1)/C=C1\C(=O)Nc3ccc(cc31)CN(C)C(=O)COCCNC2=O [Ex.111, [17a(18)Z]-2,11-dimethyl-6,7,11,12-tetrahydro-1H-13,15-(ethanediylidene)dipyrrolo[3,2-f:3′,4′-i][1,4,14]oxadiazacyclohexadecine-4,10,17(5H,9H,16H)-trione] | 71 % Ctrl | 89 % Ctrl | 100 % Ctrl | 44 % Ctrl | 77 % Ctrl | 14 % Ctrl | 73 % Ctrl |
| Cc1cc2c([nH]1)/C=C1\C(=O)Nc3cnc(cc31)-c1cnn(C)c1COCCNC2=O [Ex.123, [3a(4)Z]-6,14-dimethyl-10,11,13,14-tetrahydro-2H-17,1-(azenometheno)pyrazolo[4,3-m]dipyrrolo[3,2-f:3′,4′-i][1,4]oxazacyclopentadecine-3,8(5H,9H)-dione] | 89 % Ctrl | 100 % Ctrl | 100 % Ctrl | 77 % Ctrl | 94 % Ctrl | 95 % Ctrl | 90 % Ctrl |
| Cc1cc2c([nH]1)/C=C1\C(=O)Nc3ccc(cc31)-c1ccnn1CCOCCN(C)C2=O [Ex. 41, [19a(20)Z]-2,5-dimethyl-6,7,9,10-tetrahydro-1H-15,17-(ethanediylidene)pyrazolo[1,5-d]dipyrrolo[3,4-h:2′,3′-k][1,4,14]oxadiazacyclohexadecine-4,19(5H,18H)-dione] | 17 % Ctrl | 54 % Ctrl | 75 % Ctrl | 17 % Ctrl | 86 % Ctrl | 0 % Ctrl | 88 % Ctrl |
| Cc1cc2c([nH]1)/C=C1\C(=O)Nc3ccc(cc31)-c1ccnn1CCNCCNC2=O [Ex. 43, [19a(20)Z]-2-methyl-5,6,7,8,9,10-hexahydro-15,17-(ethanediylidene)pyrazolo[1,5-g]dipyrrolo[3,4-k:2′,3′-n][1,4,7]triazacyclohexadecine-4,19(1H,18H)-dione] | 100 % Ctrl | 68 % Ctrl | 94 % Ctrl | 72 % Ctrl | 92 % Ctrl | 98 % Ctrl | 92 % Ctrl |
